In US20090111798A1, “5,6-DIHYDRO-1H-PYRIDIN-2-ONE COMPOUNDS” (priority 2006, published 2009):
Structures can show the parent of a compound that is named as a salt.

Target: NS5B polymerase (Hepatitis C virus genotype 1b, UniProt P26663)
Experiment: biochemical
Conditions: NS5B polymerase inhibition; 20 nM enzyme, 75 min at 28° C.
Experimental: Compounds were tested for HCV polymerase inhibition. Assays were performed in a 96-well streptavidin-coated FlashPlate using 20 nM enzyme, 0.5μ Ci of [α-^33P]GTP, 0.6 μM GTP, and 250 nM 5′biotinylated oligo (rG13)/poly rC in 20 mM Tris-HCl, pH 7.5, 5 mM MgCl2, 5 mM dithiothreitol, 0.1 g/L bovine serum albumin, and 100 U/mL RNAse inhibitor. The reaction was stopped by aspiration after 75 min at 28° C. and the plate was washed several times. After washing and drying the plate, incorporated radioactivity was counted using a Microbeta scintillation counter. IC50 values were calculated relative to the uninhibited control and inhibition data were fitted to a 4-parameter IC50 equation.

Sequence of NS5B polymerase (P26663 2420-3010): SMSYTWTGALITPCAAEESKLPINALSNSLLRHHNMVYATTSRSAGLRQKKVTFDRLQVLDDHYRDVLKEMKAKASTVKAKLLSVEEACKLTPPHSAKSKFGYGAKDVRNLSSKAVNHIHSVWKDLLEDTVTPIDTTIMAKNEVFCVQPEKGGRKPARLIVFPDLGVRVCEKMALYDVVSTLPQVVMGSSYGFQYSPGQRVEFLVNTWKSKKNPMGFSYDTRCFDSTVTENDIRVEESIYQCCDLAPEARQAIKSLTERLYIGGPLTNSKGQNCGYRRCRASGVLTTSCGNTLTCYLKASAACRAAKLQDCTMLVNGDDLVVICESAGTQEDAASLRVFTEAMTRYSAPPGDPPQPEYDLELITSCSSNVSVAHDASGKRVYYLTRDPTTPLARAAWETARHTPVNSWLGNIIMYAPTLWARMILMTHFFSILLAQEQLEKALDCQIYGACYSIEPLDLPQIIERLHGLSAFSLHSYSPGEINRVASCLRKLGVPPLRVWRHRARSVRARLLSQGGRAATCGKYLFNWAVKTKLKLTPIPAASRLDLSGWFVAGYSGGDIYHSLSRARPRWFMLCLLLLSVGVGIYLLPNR

Row | IC50 [µM] | SMILES
1 | 0.02 to 0.1 | CC(C)CCN1C(=O)C(C2=NS(=O)(=O)c3cc(NS(C)(=O)=O)ccc3N2)=C(O)C2CCCCCC21 (centres unmarked) [Example 33, N-{3-[4-Hydroxy-1-(3-methyl-butyl)-2-oxo-2,4-a,5,6,7,8,9,9a-octahydro-1H-cyclohepta[b]pyridin-3-yl]-1,1-dioxo-1,4-dihydro-1λ^6-benzo[1,2,4]thiadiazin-7-yl}-methanesulfonamide]
2 | 0.1 to 1 | CC(C)CCN1C(=O)C(C2=NS(=O)(=O)c3cc(N(C)S(C)(=O)=O)ccc3N2)=C(O)C2CCCCCC21 (centres unmarked) [Example 34, N-{3-[4-Hydroxy-1-(3-methyl-butyl)-2-oxo-2,4-a,5,6,7,8,9,9a-octahydro-1H-cyclohepta[b]pyridin-3-yl]-1,1-dioxo-1,4-dihydro-1λ^6-benzo[1,2,4]thiadiazin-7-yl}-N-methyl-methanesulfonamide]
3 | 1 to 100 | CC(C)(C)CCN1C(=O)C(C2=NS(=O)(=O)c3cc(NS(C)(=O)=O)ccc3N2)=C(O)C2CCCCCCC21 (centres unmarked) [Example 35, N-{3-[1-(3,3-Dimethyl-butyl)-4-hydroxy-2-oxo-1,2,4a,5,6,7,8,9,10,10a-decahydro-cycloocta[b]pyridin-3-yl]-1,1-dioxo-1,4-dihydro-1λ^6-benzo[1,2,4]thiadiazin-7-yl]-methanesulfonamide]
4 | 1 to 100 | CN(c1ccc2c(c1)S(=O)(=O)N=C(C1=C(O)C3CCCCCCC3N(CCC(C)(C)C)C1=O)N2)S(C)(=O)=O (centres unmarked) [Example 36, N-{3-[1-(3,3-Dimethyl-butyl)-4-hydroxy-2-oxo-1,2,4a,5,6,7,8,9,10,10a-decahydro-cycloocta[b]pyridin-3-yl]-1,1-dioxo-1,4-dihydro-1λ^6-benzo[1,2,4]thiadiazin-7-yl]-N-methyl-methanesulfonamide]
5 | 1 to 100 | O=C1C(C2=NS(=O)(=O)c3cc(I)ccc3N2)=C(O)[C@@H]2CCC[C@@H]2N1Cc1ccc(F)cc1 [Example 39, (4aR,7aS)-1-(4-Fluoro-benzyl)-4-hydroxy-3-(7-iodo-1,1-dioxo-1,4-dihydro-1λ^6-benzo[1,2,4]thiadiazin-3-yl)-1,4-a,5,6,7,7a-hexahydro-[1]pyrindin-2-one]
6 | 0.02 to 0.1 | O=C1C(C2=NS(=O)(=O)c3cc(NS(=O)(=O)c4ccccc4)ccc3N2)=C(O)[C@@H]2CCC[C@@H]2N1Cc1ccc(F)cc1 [Example 40, (4aR,7aS)—N-{3-[1-(4-Fluoro-benzyl)-4-hydroxy-2-oxo-2,4-a,5,6,7,7a-hexahydro-1H-[1]pyrindin-3-yl]-1,1-dioxo-1,4-dihydro-1λ^6-benzo[1,2,4]thiadiazin-7-yl]-benzenesulfonamide]
7 | 1 to 100 | O=C1C(C2=NS(=O)(=O)c3cc(N4CCCCC4)ccc3N2)=C(O)[C@@H]2CCC[C@@H]2N1Cc1ccc(F)cc1 [Example 42, (4aR,7aS)-3-(1,1-Dioxo-7-piperidin-1-yl-1,4-dihydro-1λ^6-benzo[1,2,4]thiadiazin-3-yl)-1-(4-fluoro-benzyl)-4-hydroxy-1,4-a,5,6,7,7a-hexahydro-[1]pyrindin-2-one]
8 | 0.1 to 1 | O=C1C(C2=NS(=O)(=O)c3cc(C4=CCCS4(=O)=O)ccc3N2)=C(O)[C@@H]2CCC[C@@H]2N1Cc1ccc(F)cc1 [Example 44, (4aR,7aS)-3-[7-(1,1-Dioxo-4,5-dihydro-1H-1λ^6-thiophen-2-yl)-1,1-dioxo-1,4-dihydro-1λ^6-benzo[1,2,4]thiadiazin-3-yl]-1-(4-fluoro-benzyl)-4-hydroxy-1,4a,5,6,7,7a-hexahydro-[1]pyrindin-2-one]
9 | 1 to 100 | O=C1C(C2=NS(=O)(=O)c3cc(I)ccc3N2)=C(O)C2CCCCCC2N1Cc1ccc(F)cc1 (centres unmarked) [Example 46, 1-(4-Fluoro-benzyl)-4-hydroxy-3-(7-iodo-1,1-dioxo-1,4-dihydro-1λ^6-benzo[1,2,4]thiadiazin-3-yl)-1,4-a,5,6,7,8,9,9a-octahydro-cyclohepta[b]pyridin-2-one]
10 | 0.1 to 1 | CS(=O)(=O)Nc1ccc2c(c1)S(=O)(=O)N=C(C1=C(O)C3CCCCC3N(C3CCCCC3)C1=O)N2 (centres unmarked) [Example 49, N-[3-(1-Cyclohexyl-4-hydroxy-2-oxo-1,2,4a,5,6,7,8,8a-octahydro-quinolin-3-yl)-1,1-dioxo-1,4-dihydro-1λ^6-benzo[1,2,4]thiadiazin-7-yl]-methanesulfonamide]
11 | 1 to 100 | O=C1C(C2=NS(=O)(=O)c3cc(I)ccc3N2)=C(O)C2CCCCC2N1Cc1ccc(F)cc1 (centres unmarked) [Example 50, 1-(4-Fluoro-benzyl)-4-hydroxy-3-(7-iodo-1,1-dioxo-1,4-dihydro-1λ^6-benzo[1,2,4]thiadiazin-3-yl)-4-a,5,6,7,8,8a-hexahydro-1H-quinolin-2-one]
12 | 0.1 to 1 | O=C1C(C2=NS(=O)(=O)c3cc(NS(=O)(=O)Cc4ccccc4)ccc3N2)=C(O)[C@@H]2CCC[C@@H]2N1Cc1ccc(F)cc1 [Example 52, (4aR,7aS)-N-{3-[1-(4-Fluoro-benzyl)-4-hydroxy-2-oxo-2,4a,5,6,7,7a-hexahydro-1H-[1]pyrindin-3-yl]-1,1-dioxo-1,4-dihydro-1λ^6-benzo[1,2,4]thiadiazin-7-yl}-C-phenyl-methanesulfonamide]
13 | 1 to 100 | CS(=O)(=O)Nc1ccc2c(c1)S(=O)(=O)N=C(C1=C(O)C3CCCCCC3NC1=O)N2 (centres unmarked) [Example 59, N-[3-(4-Hydroxy-2-oxo-2,4a,5,6,7,8,9,9a-octahydro-1H-cyclohepta[b]pyridin-3-yl)-1,1-dioxo-1,4-dihydro-1λ^6-benzo[1,2,4]thiadiazin-7-yl]-methanesulfonamide]
14 | 0.02 to 0.1 | CS(=O)(=O)Nc1ccc2c(c1)S(=O)(=O)N=C(C1=C(O)C3CCCCCC3N(NC3CCC3)C1=O)N2 (centres unmarked) [Example 60, N-[3-(1-Cyclobutylamino-4-hydroxy-2-oxo-2,4a,5,6,7,8,9,9a-octahydro-1H-cyclohepta[b]pyridin-3-yl)-1,1-dioxo-1,4-dihydro-1λ^6-benzo[1,2,4]thiadiazin-7-yl]-methanesulfonamide trifluoroaceticacid salt]
